ChEMBL document CHEMBL1147878, “Synthesis and in vitro antimicrobial activity of new 2-[p-substituted-benzyl]-5-[substituted-carbonylamino]benzoxazoles” (2007)
In brackets after ≈: the same amount, converted by molar mass.

Assays:
Type in all cases: functional
Candida albicans = experiment: Antifungal activity against Candida albicans after 48 hrs by serial dilution method
Bacillus subtilis = experiment: Antibacterial activity against Bacillus subtilis ATCC 6633 after 24 hrs by serial dilution method
Staphylococcus aureus = experiment: Antibacterial activity against Staphylococcus aureus ATCC 25923 after 24 hrs by serial dilution method
Pseudomonas aeruginosa = experiment: Antibacterial activity against Pseudomonas aeruginosa ATCC 10145 after 24 hrs by serial dilution method
Escherichia coli = experiment: Antibacterial activity against Escherichia coli ATCC 23556 after 24 hrs by serial dilution method
Pichia kudriavzevii = experiment: Antifungal activity against Candida krusei ATCC 6258 after 48 hrs by serial dilution method; details: ATCC 6258, 48 h
Nakaseomyces glabratus = experiment: Antifungal activity against Candida glabrata after 48 hrs by serial dilution method

Molecule	MIC (Candida albicans) [µg/mL]	MIC (Bacillus subtilis; ATCC 6633, 24 h) [µg/mL]	MIC (Staphylococcus aureus; ATCC 25923, 24 h) [µg/mL]	MIC (Pseudomonas aeruginosa; ATCC 10145, 24 h) [µg/mL]	MIC (Escherichia coli; ATCC 23556, 24 h) [µg/mL]	MIC (Pichia kudriavzevii) [µg/mL]	MIC (Nakaseomyces glabratus) [µg/mL]	MIC (Bacillus subtilis) [µg/mL]	MIC (Staphylococcus aureus) [µg/mL]	MIC (Pseudomonas aeruginosa) [µg/mL]	MIC (Escherichia coli) [µg/mL]
O=C(Nc1ccc2oc(Cc3ccc(Cl)cc3)nc2c1)c1ccc(Cl)c([N+](=O)[O-])c1	25 (≈ 56.5 µM)	50 (≈ 113 µM)	50 (≈ 113 µM)	50 (≈ 113 µM)	50 (≈ 113 µM)	25 (≈ 56.5 µM)	25 (≈ 56.5 µM)				
O=C(Cc1ccc(F)cc1)Nc1ccc2oc(Cc3ccccc3)nc2c1	50 (≈ 139 µM)	25 (≈ 69.4 µM)	50 (≈ 139 µM)	25 (≈ 69.4 µM)	25 (≈ 69.4 µM)	12.5 (≈ 34.7 µM)	12.5 (≈ 34.7 µM)				
O=C(Cc1ccc(Br)cc1)Nc1ccc2oc(Cc3ccc(Cl)cc3)nc2c1	12.5 (≈ 27.4 µM)	25 (≈ 54.9 µM)	50 (≈ 110 µM)	50 (≈ 110 µM)	50 (≈ 110 µM)	25 (≈ 54.9 µM)	50 (≈ 110 µM)				
CN(C)[C@@H]1C(O)=C(C(N)=O)C(=O)[C@@]2(O)C(O)=C3C(=O)c4c(O)cccc4[C@@](C)(O)[C@H]3C[C@@H]12 [TETRACYCLINE]		1.56 (≈ 3.51 µM)	1.56 (≈ 3.51 µM)	50 (≈ 113 µM)	3.12 (≈ 7.02 µM)						
O=C(Cc1ccc(Cl)cc1)Nc1ccc2oc(Cc3ccc(Cl)cc3)nc2c1	50 (≈ 122 µM)	25 (≈ 60.8 µM)	50 (≈ 122 µM)	25 (≈ 60.8 µM)	50 (≈ 122 µM)	6.25 (≈ 15.2 µM)	12.5 (≈ 30.4 µM)				
CCc1ccc(C(=O)Nc2ccc3oc(Cc4ccccc4)nc3c2)cc1	25 (≈ 70.1 µM)	50 (≈ 140 µM)	50 (≈ 140 µM)	50 (≈ 140 µM)	50 (≈ 140 µM)	25 (≈ 70.1 µM)	12.5 (≈ 35.1 µM)				
GENTAMICIN								1.56	3.12	12.5	12.5
CN[C@@H]1[C@H](O[C@H]2[C@H](O[C@H]3[C@H](O)[C@@H](O)[C@H](N=C(N)N)[C@@H](O)[C@@H]3N=C(N)N)O[C@@H](C)[C@]2(O)C=O)O[C@@H](CO)[C@H](O)[C@H]1O (stereo in doubt) [STREPTOMYCIN]		50 (≈ 86 µM)	3.12 (≈ 5.36 µM)	100 (≈ 172 µM)	1.56 (≈ 2.68 µM)		13 (≈ 22.4 µM)				
Cc1ccc(C(=O)Nc2ccc3oc(Cc4ccccc4)nc3c2)cc1C	25 (≈ 70.1 µM)	50 (≈ 140 µM)	50 (≈ 140 µM)	25 (≈ 70.1 µM)	50 (≈ 140 µM)	50 (≈ 140 µM)	50 (≈ 140 µM)				
CC(C)(C)c1ccc(C(=O)Nc2ccc3oc(Cc4ccc(Cl)cc4)nc3c2)cc1	50 (≈ 119 µM)	50 (≈ 119 µM)	25 (≈ 59.7 µM)	50 (≈ 119 µM)	50 (≈ 119 µM)	50 (≈ 119 µM)	50 (≈ 119 µM)				
O=C(Cc1ccc(Br)cc1)Nc1ccc2oc(Cc3ccccc3)nc2c1	25 (≈ 59.3 µM)	25 (≈ 59.3 µM)	25 (≈ 59.3 µM)	25 (≈ 59.3 µM)	25 (≈ 59.3 µM)	12.5 (≈ 29.7 µM)	3.12 (≈ 7.41 µM)				
O=C(Nc1ccc2oc(Cc3ccc(Cl)cc3)nc2c1)c1ccc(Br)cc1	50 (≈ 113 µM)	50 (≈ 113 µM)	50 (≈ 113 µM)	50 (≈ 113 µM)	50 (≈ 113 µM)	100 (≈ 226 µM)	100 (≈ 226 µM)				
Cc1ccc(C)c(C(=O)Nc2ccc3oc(Cc4ccccc4)nc3c2)c1	25 (≈ 70.1 µM)	25 (≈ 70.1 µM)	50 (≈ 140 µM)	50 (≈ 140 µM)	50 (≈ 140 µM)	25 (≈ 70.1 µM)	25 (≈ 70.1 µM)				
O=C(Nc1ccc2oc(Cc3ccccc3)nc2c1)c1ccc([N+](=O)[O-])cc1	12.5 (≈ 33.5 µM)	25 (≈ 67 µM)	50 (≈ 134 µM)	25 (≈ 67 µM)	100 (≈ 268 µM)	12.5 (≈ 33.5 µM)	12.5 (≈ 33.5 µM)				
O=C(Cc1ccccc1)Nc1ccc2oc(Cc3ccc(Cl)cc3)nc2c1	25 (≈ 66.3 µM)	25 (≈ 66.3 µM)	50 (≈ 133 µM)	25 (≈ 66.3 µM)	50 (≈ 133 µM)	25 (≈ 66.3 µM)	25 (≈ 66.3 µM)				
Cc1ccc(C)c(C(=O)Nc2ccc3oc(Cc4ccc(Cl)cc4)nc3c2)c1	6.25 (≈ 16 µM)	12.5 (≈ 32 µM)	50 (≈ 128 µM)	50 (≈ 128 µM)	12.5 (≈ 32 µM)	12.5 (≈ 32 µM)	25 (≈ 64 µM)				
CCc1ccc(C(=O)Nc2ccc3oc(Cc4ccc(Cl)cc4)nc3c2)cc1	25 (≈ 64 µM)	50 (≈ 128 µM)	50 (≈ 128 µM)	50 (≈ 128 µM)	50 (≈ 128 µM)	25 (≈ 64 µM)	25 (≈ 64 µM)				
O=C(Nc1ccc2oc(Cc3ccccc3)nc2c1)c1ccc(Br)cc1	25 (≈ 61.4 µM)	50 (≈ 123 µM)	50 (≈ 123 µM)	25 (≈ 61.4 µM)	50 (≈ 123 µM)	25 (≈ 61.4 µM)	25 (≈ 61.4 µM)				
O=C(O)c1cn(C2CC2)c2cc(N3CCNCC3)c(F)cc2c1=O [CIPROFLOXACIN]		1.56 (≈ 4.71 µM)	3.12 (≈ 9.42 µM)	0.78 (≈ 2.35 µM)							
O=C(Nc1ccc2oc(Cc3ccccc3)nc2c1)c1ccc(F)cc1	12.5 (≈ 36.1 µM)	25 (≈ 72.2 µM)	50 (≈ 144 µM)	25 (≈ 72.2 µM)	50 (≈ 144 µM)	50 (≈ 144 µM)	25 (≈ 72.2 µM)				
O=C(Nc1ccc2oc(Cc3ccc(Cl)cc3)nc2c1)c1ccc(F)cc1	12.5 (≈ 32.8 µM)	25 (≈ 65.7 µM)	50 (≈ 131 µM)	50 (≈ 131 µM)	25 (≈ 65.7 µM)	12.5 (≈ 32.8 µM)	12.5 (≈ 32.8 µM)				

Molecule	MIC (Candida albicans) [µg/mL]	MIC (Bacillus subtilis; ATCC 6633, 24 h) [µg/mL]	MIC (Staphylococcus aureus; ATCC 25923, 24 h) [µg/mL]	MIC (Pseudomonas aeruginosa; ATCC 10145, 24 h) [µg/mL]	MIC (Escherichia coli; ATCC 23556, 24 h) [µg/mL]	MIC (Pichia kudriavzevii) [µg/mL]	MIC (Nakaseomyces glabratus) [µg/mL]	MIC (Bacillus subtilis) [µg/mL]	MIC (Staphylococcus aureus) [µg/mL]	MIC (Pseudomonas aeruginosa) [µg/mL]	MIC (Escherichia coli) [µg/mL]
O=C(Cc1ccc(Cl)cc1)Nc1ccc2oc(Cc3ccccc3)nc2c1	25 (≈ 66.3 µM)	100 (≈ 265 µM)	100 (≈ 265 µM)	50 (≈ 133 µM)	50 (≈ 133 µM)	25 (≈ 66.3 µM)	25 (≈ 66.3 µM)				
O=C(Nc1ccc2oc(Cc3ccccc3)nc2c1)c1ccccc1	50 (≈ 152 µM)	50 (≈ 152 µM)	200 (≈ 609 µM)	100 (≈ 305 µM)	100 (≈ 305 µM)	12.5 (≈ 38.1 µM)	25 (≈ 76.1 µM)				
Cc1ccc(C(=O)Nc2ccc3oc(Cc4ccccc4)nc3c2)s1	12.5 (≈ 35.9 µM)	25 (≈ 71.8 µM)	25 (≈ 71.8 µM)	25 (≈ 71.8 µM)	25 (≈ 71.8 µM)	6.25 (≈ 17.9 µM)	6.25 (≈ 17.9 µM)				
O=C(Nc1ccc2oc(Cc3ccc(Cl)cc3)nc2c1)c1ccccc1	50 (≈ 138 µM)	50 (≈ 138 µM)	200 (≈ 551 µM)	100 (≈ 276 µM)	100 (≈ 276 µM)	25 (≈ 68.9 µM)	25 (≈ 68.9 µM)				
Clc1ccccc1C(c1ccccc1)(c1ccccc1)n1ccnc1 [CLOTRIMAZOLE]	6.25 (≈ 18.1 µM)										
O=C(Cc1ccc(F)cc1)Nc1ccc2oc(Cc3ccc(Cl)cc3)nc2c1	50 (≈ 127 µM)	100 (≈ 253 µM)	12.5 (≈ 31.7 µM)	25 (≈ 63.3 µM)	50 (≈ 127 µM)	25 (≈ 63.3 µM)	50 (≈ 127 µM)				
O=C(Nc1ccc2oc(Cc3ccc(Cl)cc3)nc2c1)c1ccc([N+](=O)[O-])cc1	50 (≈ 123 µM)	50 (≈ 123 µM)	100 (≈ 245 µM)	25 (≈ 61.3 µM)	25 (≈ 61.3 µM)	25 (≈ 61.3 µM)	25 (≈ 61.3 µM)				
CC1(C)S[C@@H]2[C@H](NC(=O)[C@H](N)c3ccccc3)C(=O)N2[C@H]1C(=O)O [AMPICILLIN]		1.56 (≈ 4.46 µM)	1.56 (≈ 4.46 µM)	> 200	12.5 (≈ 35.8 µM)						
CC(C)(C)c1ccc(C(=O)Nc2ccc3oc(Cc4ccccc4)nc3c2)cc1	50 (≈ 130 µM)	50 (≈ 130 µM)	200 (≈ 520 µM)	25 (≈ 65 µM)	25 (≈ 65 µM)	25 (≈ 65 µM)	25 (≈ 65 µM)				
O=C(CSc1ccccc1)Nc1ccc2oc(Cc3ccc(Cl)cc3)nc2c1	50 (≈ 122 µM)	100 (≈ 245 µM)	100 (≈ 245 µM)	100 (≈ 245 µM)	100 (≈ 245 µM)	25 (≈ 61.1 µM)	50 (≈ 122 µM)				
CC1(C)S[C@@H]2[C@H](NC(=O)[C@H](N)c3ccc(O)cc3)C(=O)N2[C@H]1C(=O)O [AMOXICILLIN]		1.56 (≈ 4.27 µM)	1.56 (≈ 4.27 µM)	> 200	3.12 (≈ 8.54 µM)						
O=C(Cc1ccc([N+](=O)[O-])cc1)Nc1ccc2oc(Cc3ccc(Cl)cc3)nc2c1	12.5 (≈ 29.6 µM)	50 (≈ 119 µM)	50 (≈ 119 µM)	25 (≈ 59.3 µM)	50 (≈ 119 µM)	25 (≈ 59.3 µM)	25 (≈ 59.3 µM)				
O=C(Cc1ccc([N+](=O)[O-])cc1)Nc1ccc2oc(Cc3ccccc3)nc2c1	25 (≈ 64.5 µM)	50 (≈ 129 µM)	50 (≈ 129 µM)	25 (≈ 64.5 µM)	50 (≈ 129 µM)	25 (≈ 64.5 µM)	25 (≈ 64.5 µM)				
Cc1ccc(CC(=O)Nc2ccc3oc(Cc4ccc(Cl)cc4)nc3c2)cc1	12.5 (≈ 32 µM)	25 (≈ 64 µM)	100 (≈ 256 µM)	25 (≈ 64 µM)	50 (≈ 128 µM)	12.5 (≈ 32 µM)	12.5 (≈ 32 µM)				
Cc1ccc(CC(=O)Nc2ccc3oc(Cc4ccccc4)nc3c2)cc1	25 (≈ 70.1 µM)	25 (≈ 70.1 µM)	25 (≈ 70.1 µM)	25 (≈ 70.1 µM)	25 (≈ 70.1 µM)	6.25 (≈ 17.5 µM)	12.5 (≈ 35.1 µM)				
O=C(CSc1ccccc1)Nc1ccc2oc(Cc3ccccc3)nc2c1	25 (≈ 66.8 µM)	50 (≈ 134 µM)	100 (≈ 267 µM)	25 (≈ 66.8 µM)	50 (≈ 134 µM)	25 (≈ 66.8 µM)	25 (≈ 66.8 µM)				
Clc1ccc(COC(Cn2ccnc2)c2ccc(Cl)cc2Cl)c(Cl)c1 (stereo not given) [MICONAZOLE]	3.12 (≈ 7.5 µM)					1.56 (≈ 3.75 µM)	3.12 (≈ 7.5 µM)				
O=C(Cc1ccccc1)Nc1ccc2oc(Cc3ccccc3)nc2c1	12.5 (≈ 36.5 µM)	25 (≈ 73 µM)	25 (≈ 73 µM)	50 (≈ 146 µM)	25 (≈ 73 µM)	12.5 (≈ 36.5 µM)	25 (≈ 73 µM)				
Clc1cc(Cl)c(OCC#CI)cc1Cl [HALOPROGIN]	3.12 (≈ 8.63 µM)										
O=C(Nc1ccc2oc(Cc3ccccc3)nc2c1)c1ccc(Cl)c([N+](=O)[O-])c1	12.5 (≈ 30.7 µM)	25 (≈ 61.3 µM)	50 (≈ 123 µM)	25 (≈ 61.3 µM)	50 (≈ 123 µM)	12.5 (≈ 30.7 µM)	12.5 (≈ 30.7 µM)				
Cc1ccc(C(=O)Nc2ccc3oc(Cc4ccc(Cl)cc4)nc3c2)cc1C	100 (≈ 256 µM)	25 (≈ 64 µM)	12.5 (≈ 32 µM)	50 (≈ 128 µM)	50 (≈ 128 µM)	12.5 (≈ 32 µM)	50 (≈ 128 µM)				
